Tests used:
[1] = molecular target: T1, human recombinant CBL-b (human Biotin CBL-b recombinant protein a.a. 39-426) (Homo sapiens, UniProt Q13191); experiment: Biochemical assay for CBL-b inhibition (ligand displacement TR-FRET); format: binding; conditions: 50 nM CBL-b, 0.3 μM Bodipy FL-Probe, read-out: IC50 (CBL-b inhibition, group)
T1 construct: human Biotin CBL-b recombinant protein a.a; 39-426; Biotin (biotinylated); made in house
Procedure, shortened: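 Biotinylated CBL-b (a.a. 39-426, 50 nM final) pre-incubated with compound 60 min at RT in HEPES/NaCl/Triton/BSA/TCEP buffer, then Bodipy FL probe (0.3 μM final) 60 min, then terbium-streptavidin 60 min. TR-FRET read at 665/615 nm; IC50 and % max inhibition from sigmoidal fits.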

[2] = system: NFAT signaling pathway in Jurkat NFAT reporter cells; experiment: Jurkat NFAT reporter assay; format: cell-based; conditions: Homo sapiens, 30 min with compound, then soluble anti-human CD3/CD28 antibody for 6 hours, luciferase readout, read-out: EC50 (Group)
Procedure, shortened: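 Jurkat cells bearing an NFAT-RE-driven luciferase reporter (1×10^5 per well) preincubated with Cbl-b inhibitor for 30 min, then stimulated 6 h with soluble anti-CD3/CD28. Luminescence read with Bio-Glo; values are fold change over anti-CD3/CD28-stimulated cells without inhibitor.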

T1 sequence (Q13191 39-426): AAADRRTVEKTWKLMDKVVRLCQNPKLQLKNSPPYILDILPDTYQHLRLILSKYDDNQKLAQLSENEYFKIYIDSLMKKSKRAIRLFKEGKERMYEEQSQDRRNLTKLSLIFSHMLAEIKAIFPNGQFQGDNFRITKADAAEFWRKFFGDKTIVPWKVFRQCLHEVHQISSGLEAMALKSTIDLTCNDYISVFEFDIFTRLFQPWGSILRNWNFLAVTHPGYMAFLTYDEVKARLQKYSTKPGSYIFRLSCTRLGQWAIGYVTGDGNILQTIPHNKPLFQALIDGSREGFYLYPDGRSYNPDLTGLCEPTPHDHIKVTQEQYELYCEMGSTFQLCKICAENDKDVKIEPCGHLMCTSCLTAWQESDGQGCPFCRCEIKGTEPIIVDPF

Compound `Cn1cnnc1CC1(c2ccc3c(c2)C(=O)N(c2cc(CN4CC5(CCC5)C4)cc(C(F)(F)F)n2)C3)COC1` [Compound 51, 2-(4-((2-Azaspiro[3.3]heptan-2-yl)methyl)-6-(trifluoromethyl)pyridin-2-yl)-6-(3-((4-methyl-4H-1,2,4-triazol-3-yl)methyl)oxetan-3-yl)isoindolin-1-one] has an IC50 [1] of 0.3 to 5 µM and an EC50 [2] of 1 to 10 µM.

Compound `C[C@H]1CCCN(Cc2cc(Cl)nc(N3Cc4ccc([C@]5(c6nncn6C)C[C@@H](C)C5)cc4C3=O)c2)C1` [Compound 58, 2-(6-Chloro-4-(((S)-3-methylpiperidin-1-yl)methyl)pyridin-2-yl)-6-((1s,3R)-3-methyl-1-(4-methyl-4H-1,2,4-triazol-3-yl)cyclobutyl)isoindolin-1-one] has an IC50 [1] of 0.3 to 5 µM and an EC50 [2] of 1 to 10 µM.

`C[C@H]1C[C@H](C)CN(Cc2cc(Cl)nc(N3Cc4ccc(C5(Cc6nncn6C)COC5)cc4C3=O)c2)C1` [Compound 60, 2-(6-Chloro-4-(((3S,5S)-3,5-dimethylpiperidin-1-yl)methyl)pyridin-2-yl)-6-(3-((4-methyl-4H-1,2,4-triazol-3-yl)methyl)oxetan-3-yl)isoindolin-1-one] was tested, and the IC50 [1] was less than 0.08 µM and the EC50 [2] was less than 0.3 µM.

`Cn1cnnc1CC1(c2ccc3c(c2)C(=O)N(c2cc(CN4CC[C@H](F)C4)cc(C(F)(F)F)n2)C3)COC1` [Compound 61, (S)-2-(4-((3-Fluoropyrrolidin-1-yl)methyl)-6-(trifluoromethyl)pyridin-2-yl)-6-(3-((4-methyl-4H-1,2,4-triazol-3-yl)methyl)oxetan-3-yl)isoindolin-1-one] showed an IC50 [1] of 0.3 to 5 µM and an EC50 [2] of 1 to 10 µM.

In the case of `Cn1cnnc1CC1(c2ccc3c(c2)C(=O)N(c2cc(CN4CCC5(CC5)C4)cc(Cl)n2)C3)COC1` [Compound 62, 2-(4-((5-Azaspiro[2.4]heptan-5-yl)methyl)-6-chloropyridin-2-yl)-6-(3-((4-methyl-4H-1,2,4-triazol-3-yl)methyl)oxetan-3-yl)isoindolin-1-one], the IC50 [1] is reported as 0.08 to 0.3 µM and the EC50 [2] is reported as 0.3 to 1 µM.

For `Cn1cnnc1CC1(c2ccc3c(c2)C(=O)N(c2cc(CN4CCCCC4)cc(Cl)n2)C3)COC1` [Compound 64, 2-(6-Chloro-4-(piperidin-1-ylmethyl)pyridin-2-yl)-6-(3-((4-methyl-4H-1,2,4-triazol-3-yl)methyl)oxetan-3-yl)isoindolin-1-one], the IC50 [1] was less than 0.08 µM and the EC50 [2] was less than 0.3 µM.

Compound `C[C@@H]1C[C@H](C)CN(Cc2cc(N3Cc4ccc(C5(Cc6nncn6C)COC5)cc4C3=O)cc(C(F)(F)F)c2)C1` [Compound 65, 2-(3-(((3S,5R)-3,5-Dimethylpiperidin-1-yl)methyl)-5-(trifluoromethyl)phenyl)-6-(3-((4-methyl-4H-1,2,4-triazol-3-yl)methyl)oxetan-3-yl)isoindolin-1-one] has an IC50 [1] of 0.08 to 0.3 µM and an EC50 [2] of 0.3 to 1 µM.

Work on `Cn1cnnc1CC1(c2ccc3c(c2)C(=O)N(c2cc(CNCCC(F)(F)F)cc(Cl)n2)C3)COC1` [Compound 66, 2-(6-Chloro-4-(((3,3,3-trifluoropropyl)amino)methyl)pyridin-2-yl)-6-(3-((4-methyl-4H-1,2,4-triazol-3-yl)methyl)oxetan-3-yl)isoindolin-1-one] yielded an IC50 [1] of less than 0.08 µM and an EC50 [2] of less than 0.3 µM.

`C[C@H]1CCN(Cc2cc(Cl)nc(N3Cc4ccc(C5(Cc6nncn6C)COC5)cc4C3=O)c2)C1` [Compound 67, (S)-2-(6-Chloro-4-((3-methylpyrrolidin-1-yl)methyl)pyridin-2-yl)-6-(3-((4-methyl-4H-1,2,4-triazol-3-yl)methyl)oxetan-3-yl)isoindolin-1-one] gave an IC50 [1] of 0.08 to 0.3 µM and an EC50 [2] of 0.3 to 1 µM.

In the case of `C[C@@H]1CCN(Cc2cc(Cl)nc(N3Cc4ccc(C5(Cc6nncn6C)COC5)cc4C3=O)c2)C1` [Compound 68, (R)-2-(6-Chloro-4-((3-methylpyrrolidin-1-yl)methyl)pyridin-2-yl)-6-(3-((4-methyl-4H-1,2,4-triazol-3-yl)methyl)oxetan-3-yl)isoindolin-1-one], the IC50 [1] is reported as 0.08 to 0.3 µM and the EC50 [2] is reported as 0.3 to 1 µM.

For `Cn1cnnc1CC1(c2ccc3c(c2)C(=O)N(c2cc(CN4CC5CC5C4)cc(C(F)(F)F)n2)C3)COC1` (centres unmarked) [Compound 71, 2-(4-((3-Azabicyclo[3.1.0]hexan-3-yl)methyl)-6-(trifluoromethyl)pyridin-2-yl)-6-(3-((4-methyl-4H-1,2,4-triazol-3-yl)methyl)oxetan-3-yl)isoindolin-1-one], the IC50 [1] was 0.3 to 5 µM and the EC50 [2] was 1 to 10 µM.

Work on `C[C@H]1CCCN(Cc2cc(C3CC3)nc(N3Cc4ccc(C5(Cc6nncn6C)COC5)cc4C3=O)c2)C1` [Compound 73, (S)-2-(6-Cyclopropyl-4-((3-methylpiperidin-1-yl)methyl)pyridin-2-yl)-6-(3-((4-methyl-4H-1,2,4-triazol-3-yl)methyl)oxetan-3-yl)isoindolin-1-one] yielded an IC50 [1] of 0.08 to 0.3 µM and an EC50 [2] of 1 to 10 µM.

Work on `Cn1cnnc1CC1(c2ccc3c(c2)C(=O)N(c2cc(CNC4CC(F)(F)C4)cc(C(F)(F)F)n2)C3)COC1` [Compound 74, 2-(4-(((3,3-Difluorocyclobutyl)amino)methyl)-6-(trifluoromethyl)pyridin-2-yl)-6-(3-((4-methyl-4H-1,2,4-triazol-3-yl)methyl)oxetan-3-yl)isoindolin-1-one] yielded an IC50 [1] of 0.08 to 0.3 µM and an EC50 [2] of 1 to 10 µM.

`C[C@@H]1C[C@H](C)CN(Cc2cc(N3Cc4ccc(C5(Cc6nncn6C)CCC5)cc4C3=O)nc(C(F)(F)F)c2)C1` [Compound 82, 2-(4-(((3S,5R)-3,5-Dimethylpiperidin-1-yl)methyl)-6-(trifluoromethyl)pyridin-2-yl)-6-(1-((4-methyl-4H-1,2,4-triazol-3-yl)methyl)cyclobutyl)isoindolin-1-one] showed an IC50 [1] of less than 0.08 µM and an EC50 [2] of less than 0.3 µM.

Work on `CC(Cc1nncn1C)c1ccc2c(c1)C(=O)N(c1cc(CN3CCC[C@H](C)C3)cc(Cl)n1)C2` (stereo partly drawn) [Compound 83, 2-(6-Chloro-4-(((S)-3-methylpiperidin-1-yl)methyl)pyridin-2-yl)-6-(1-(4-methyl-4H-1,2,4-triazol-3-yl)propan-2-yl)isoindolin-1-one] yielded an IC50 [1] of less than 0.08 µM and an EC50 [2] of less than 0.3 µM.

Compound `CC(Cc1nncn1C)c1ccc2c(c1)C(=O)N(c1cc(CN3C[C@H](C)C[C@H](C)C3)cc(Cl)n1)C2` (stereo partly drawn) [Compound 84, 2-(6-Chloro-4-(((3S,5R)-3,5-dimethylpiperidin-1-yl)methyl)pyridin-2-yl)-6-(1-(4-methyl-4H-1,2,4-triazol-3-yl)propan-2-yl)isoindolin-1-one] has an IC50 [1] of 0.08 to 0.3 µM and an EC50 [2] of 0.3 to 1 µM.

Work on `C[C@H]1CCCN(Cc2cc(Cl)nc(N3Cc4ccc(C5(Cc6nncn6C)CC(C#N)C5)cc4C3=O)c2)C1` (some centres unmarked) [Compound 85] yielded an IC50 [1] of less than 0.08 µM and an EC50 [2] of less than 0.3 µM.

With `Cn1cnnc1CC1(c2ccc3c(c2)C(=O)N(c2cc(CNC4(C)CCC4)cc(C(F)(F)F)n2)C3)COC1` [Compound 88, 6-(3-((4-Methyl-4H-1,2,4-triazol-3-yl)methyl)oxetan-3-yl)-2-(4-(((1-methyl-cyclobutyl)amino)methyl)-6-(trifluoromethyl)pyridin-2-yl)isoindolin-1-one] the IC50 [1] was 0.3 to 5 µM and the EC50 [2] was 0.3 to 1 µM.

Compound `C[C@H]1CCCN(Cc2cc(Cl)nc(N3Cc4ccc(C5(Cc6nncn6C)CCC5)cc4C3=O)c2)C1` [Compound 89, (S)-2-(6-Chloro-4-((3-methylpiperidin-1-yl)methyl)pyridin-2-yl)-6-(1-((4-methyl-4H-1,2,4-triazol-3-yl)methyl)cyclobutyl)isoindolin-1-one] has an IC50 [1] of less than 0.08 µM and an EC50 [2] of less than 0.3 µM.

`Cn1cnnc1CC1(c2ccc3c(c2)C(=O)N(c2cc(CN4CCCc5c4cnn5C)cc(C(F)(F)F)n2)C3)COC1` [Compound 92, 2-(4-((1-Methyl-1,5,6,7-tetrahydro-4H-pyrazolo[4,3-b]pyridin-4-yl)methyl)-6-(trifluoromethyl)pyridin-2-yl)-6-(3-((4-methyl-4H-1,2,4-triazol-3-yl)methyl)oxetan-3-yl)isoindolin-1-one] showed an IC50 [1] of 0.3 to 5 µM and an EC50 [2] of 1 to 10 µM.

Compound `C[C@H]1CCCN(Cc2cc(N3Cc4ccc(C5(Cc6nncn6C)COC5)cc4C3=O)cc3occc23)C1` [Compound 94, (S)-6-(3-((4-Methyl-4H-1,2,4-triazol-3-yl)methyl)oxetan-3-yl)-2-(4-((3-methyl-piperidin-1-yl)methyl)benzofuran-6-yl)isoindolin-1-one] has an IC50 [1] of less than 0.08 µM and an EC50 [2] of 0.3 to 1 µM.

Work on `Cc1cc(CNCC2CC2)cc(N2Cc3ccc(-c4ccc(Cl)cc4-c4nncn4C)cc3C2=O)n1` [Compound 101, 6-(4-Chloro-2-(4-methyl-4H-1,2,4-triazol-3-yl)phenyl)-2-(4-(((cyclopropylmethyl)amino)methyl)-6-methylpyridin-2-yl)isoindolin-1-one] yielded an IC50 [1] of less than 0.08 µM and an EC50 [2] of less than 0.3 µM.

Work on `Cn1cnnc1-c1cc(Cl)ccc1-c1ccc2c(c1)C(=O)N(c1cc(CNCC3CC3)cc(Cl)n1)C2` [Compound 102, 6-(4-Chloro-2-(4-methyl-4H-1,2,4-triazol-3-yl)phenyl)-2-(6-chloro-4-(((cyclopropylmethyl)amino)methyl)pyridin-2-yl)isoindolin-1-one] yielded an IC50 [1] of less than 0.08 µM and an EC50 [2] of less than 0.3 µM.

`Cc1cc(C(C)NCC2CC2)cc(N2Cc3ccc(-c4ccc(Cl)cc4-c4nncn4C)cc3C2=O)n1` (centres unmarked) [Compound 103, 6-(4-Chloro-2-(4-methyl-4H-1,2,4-triazol-3-yl)phenyl)-2-(4-(1-((cyclopropylmethyl)amino)ethyl)-6-methylpyridin-2-yl)isoindolin-1-one] gave an IC50 [1] of less than 0.08 µM and an EC50 [2] of less than 0.3 µM.

In the case of `Cn1cnnc1-c1cc(Cl)ccc1-c1ccc2c(c1)C(=O)N(c1cc(CNC3CCCC3)cc(Cl)n1)C2` [Compound 106, 6-(4-Chloro-2-(4-methyl-4H-1,2,4-triazol-3-yl)phenyl)-2-(6-chloro-4-((cyclo-pentylamino)methyl)pyridin-2-yl)isoindolin-1-one], the IC50 [1] is reported as 0.08 to 0.3 µM and the EC50 [2] is reported as 0.3 to 1 µM.

Reference: US20260226073A1 (AURIGENE ONCOLOGY LIMITED, priority 2023, published 2026)
